Data from DBAASP.
In brackets after ≈: the same amount, converted by molar mass.

How the values were obtained:
Assay in all cases: ≥ marks a high value that may be exact or a test limit, other limits are often not marked, values filed in µg/mL are converted to µM
[1] = system: Acinetobacter baumannii ATCC 19606
[2] = system: Pseudomonas aeruginosa ATCC 27853
[3] = system: Staphylococcus aureus ATCC 43300
[4] = system: Pseudomonas aeruginosa CUN 4158-02
[5] = system: Escherichia coli ATCC 25922
[6] = system: Staphylococcus aureus CUN 3792-99
[7] = system: Staphylococcus aureus ATCC 25923
[8] = system: Stenotrophomonas maltophilia CUN 3998-00
[9] = system: Bordetella bronchiseptica CUN 11844-99
[10] = system: Bacillus thuringiensis AB92037
[11] = system: Micrococcus luteus DSM 20030
[12] = system: Listeria monocytogenes DSM 20600
[13] = system: Staphylococcus epidermidis P1389
[14] = system: Pseudomonas aeruginosa AB93066
[15] = system: Staphylococcus epidermidis P1111
[16] = system: Bacillus subtilis AB91021
[17] = system: Staphylococcus aureus P1381
[18] = system: Staphylococcus aureus P1369
[19] = system: Escherichia coli AB94012
[20] = system: Micrococcus luteus AB93113
[21] = system: Staphylococcus aureus P1386
[22] = system: Staphylococcus aureus DSM 2569
[23] = system: Listeria fleischmannii DSM 24998
[24] = system: Staphylococcus aureus AB94004
[25] = system: Staphylococcus aureus P1383
[26] = system: Staphylococcus aureus P1374
[27] = system: Escherichia coli D31
[28] = system: Listeria grayi DSM 20601
[29] = system: Bacillus cereus
[30] = system: Staphylococcus epidermidis
[31] = system: Listeria innocua
[32] = system: Leuconostoc lactis
[33] = system: Streptococcus uberis
[34] = system: Staphylococcus aureus
[35] = system: Batrachochytrium dendrobatidis
[36] = system: Micrococcus luteus
[37] = system: Escherichia coli
[38] = system: Pasteurella multocida
[39] = system: Klebsiella pneumoniae ATCC 700603
[40] = system: Candida glabrata ATCC 2001
[41] = system: Escherichia coli CCT 1457
[42] = system: Bacillus cereus ATCC 11778
[43] = system: Escherichia coli ATCC 43827
[44] = system: Candida albicans ATCC 14053
[45] = system: Pseudomonas aeruginosa ATCC 15442
[46] = system: Candida parapsilosis ATCC 22019
[47] = system: Cronobacter sakazakii ATCC 29544
[48] = system: Candida tropicalis ATCC 750
[49] = system: Staphylococcus epidermidis ATCC 12228
[50] = system: Candida krusei ATCC 6258
[51] = system: Staphylococcus aureus ATCC 29213
[52] = system: Staphylococcus aureus CCT 2580

**Q.** How did the MIC [1] turn out when `NCCCC[C@H](NC(=O)[C@H](Cc1ccccc1)NC(=O)[C@H](CCCN=C(N)N)NC(=O)[C@H](CCCN=C(N)N)NC(=O)[C@H](CS)NC(=O)CN)C(=O)N[C@@H](CCCCN)C(=O)N[C@@H](Cc1ccccc1)C(=O)N[C@@H](CCCCN)C(=O)N[C@@H](CCCCN)C(=O)N[C@@H](Cc1c[nH]c2ccccc12)C(=O)N[C@@H](CCCN=C(N)N)C(=O)N[C@@H](Cc1ccc(O)cc1)C(=O)N[C@@H](CCCN=C(N)N)C(=O)NCC(=O)N[C@@H](CCCN=C(N)N)C(=O)N[C@@H](Cc1ccccc1)C(=O)N[C@@H](Cc1c[nH]c2ccccc12)C(=O)N[C@@H](Cc1ccccc1)C(=O)N[C@@H](Cc1c[nH]c2ccccc12)C(=O)N[C@@H](CS)C(=O)N[C@@H](Cc1ccccc1)C(=O)NCC(N)=O` [GCRRFKKFKKWRYRGRFWFWCFG] was run?
**A.** The MIC was 20.3 µM (≈ 64 µg/mL).

**Q.** What about the MIC [2] of the same compound?
**A.** Its MIC is 40.7 µM (≈ 128 µg/mL).

**Q.** And the MIC [3]?
**A.** Its MIC is 10.2 µM (≈ 32 µg/mL).

**Q.** And the MIC [4]?
**A.** Its MIC is at least 40.7 µM.

**Q.** What about the MIC [5] of the same compound?
**A.** Its MIC is 20.3 µM (≈ 64 µg/mL).

**Q.** And the MIC [6]?
**A.** The MIC was 20.3 µM (≈ 64 µg/mL).

**Q.** And the MIC [7]?
**A.** Its MIC is 20.3 µM (≈ 64 µg/mL).

**Q.** And the MIC [8]?
**A.** The MIC was 20.3 µM (≈ 64 µg/mL).

**Q.** And the MIC [9]?
**A.** Its MIC is 10.2 µM (≈ 32 µg/mL).

**Q.** How did the MIC [10] turn out when `CC[C@H](C)[C@H](NC(=O)[C@H](C)NC(=O)[C@H](CO)NC(=O)[C@H](CCCCN)NC(=O)[C@@H](NC(=O)CNC(=O)[C@H](CCC(=O)O)NC(=O)[C@H](Cc1c[nH]c2ccccc12)NC(=O)[C@H](CC(C)C)NC(=O)[C@H](CCCCN)NC(=O)CNC(=O)[C@H](Cc1c[nH]c2ccccc12)NC(=O)[C@H](Cc1ccccc1)NC(=O)CN)C(C)C)C(N)=O` [GFWGKLWEGVKSAI] was run?
**A.** Its MIC is 31.7 µM (≈ 50 µg/mL).

**Q.** And the MIC [11]?
**A.** The MIC was 2 µM (≈ 3.15 µg/mL).

**Q.** And the MIC [12]?
**A.** The MIC was 8 µM (≈ 12.6 µg/mL).

**Q.** And the MIC [13]?
**A.** The MIC was 7.92 µM (≈ 12.5 µg/mL).

**Q.** And the MIC [14]?
**A.** Its MIC is at least 63.4 µM.

**Q.** And the MIC [15]?
**A.** The MIC was 3.96 µM (≈ 6.25 µg/mL).

**Q.** And the MIC [16]?
**A.** The MIC was 15.8 µM (≈ 25 µg/mL).

**Q.** And the MIC [17]?
**A.** Its MIC is 15.8 µM (≈ 25 µg/mL).

**Q.** And the MIC [18]?
**A.** The MIC was 3.96 µM (≈ 6.25 µg/mL).

**Q.** What about the MIC [19] of the same compound?
**A.** The MIC was 31.7 µM (≈ 50 µg/mL).

**Q.** What about the MIC [20] of the same compound?
**A.** Its MIC is 15.8 µM (≈ 25 µg/mL).

**Q.** What about the MIC [21] of the same compound?
**A.** Its MIC is 7.92 µM (≈ 12.5 µg/mL).

**Q.** And the MIC [22]?
**A.** The MIC was 15 µM (≈ 23.7 µg/mL).

**Q.** And the MIC [23]?
**A.** Its MIC is 4 µM (≈ 6.31 µg/mL).

**Q.** What about the MIC [24] of the same compound?
**A.** Its MIC is 3.96 µM (≈ 6.25 µg/mL).

**Q.** What about the MIC [25] of the same compound?
**A.** Its MIC is 7.92 µM (≈ 12.5 µg/mL).

**Q.** What about the MIC [26] of the same compound?
**A.** The MIC was 3.96 µM (≈ 6.25 µg/mL).

**Q.** What about the MIC [27] of the same compound?
**A.** Its MIC is 15 µM (≈ 23.7 µg/mL).

**Q.** And the MIC [28]?
**A.** The MIC was 4 µM (≈ 6.31 µg/mL).

**Q.** Which results are given for `CC[C@H](C)[C@H](NC(=O)CNC(=O)[C@H](CCC(=O)O)NC(=O)[C@@H](NC(=O)[C@@H](NC(=O)CNC(=O)[C@H](CO)NC(=O)[C@H](C)NC(=O)[C@H](CC(C)C)NC(=O)[C@H](CC(=O)O)NC(=O)CNC(=O)[C@H](C)NC(=O)[C@H](C)NC(=O)[C@H](CO)NC(=O)[C@H](CCCCN)NC(=O)[C@@H](NC(=O)[C@H](CCCCN)NC(=O)[C@H](CCC(N)=O)NC(=O)[C@H](Cc1c[nH]c2ccccc12)NC(=O)[C@H](CC(C)C)NC(=O)CN)[C@@H](C)CC)[C@@H](C)CC)C(C)C)C(=O)N[C@@H](CCCCN)C(=O)N[C@@H](CO)C(N)=O` [GLWQKIKSAAGDLASGIVEGIKS]?
**A.** MIC [29]: ≥ 42.9 µM; MIC [30]: ≥ 42.9 µM; MIC [31]: ≥ 42.9 µM; MIC [32]: ≥ 42.9 µM; MIC [33]: ≥ 42.9 µM; MIC [34]: > 42.9 µM; MIC [35]: ≥ 200 µM; MIC [36]: 5.15 µM (≈ 12 µg/mL); MIC [37]: 10.7 µM (≈ 25 µg/mL); MIC [38]: ≥ 42.9 µM

**Q.** With `CC[C@H](C)[C@H](N)C(=O)N[C@@H](CC(N)=O)C(=O)N[C@@H](Cc1c[nH]c2ccccc12)C(=O)N[C@@H](CC(C)C)C(=O)N[C@@H](CCCCN)C(=O)N[C@@H](CC(C)C)C(=O)NCC(=O)N[C@@H](CCCCN)C(=O)N[C@@H](CCSC)C(=O)N[C@H](C(=O)N[C@H](C(=O)N[C@@H](CC(=O)O)C(=O)N[C@@H](C)C(=O)N[C@@H](CC(C)C)C(N)=O)[C@@H](C)CC)C(C)C` [INWLKLGKMVIDAL] as the compound, how does the MIC [2] read?
**A.** Its MIC is 8 µM (≈ 12.9 µg/mL).

**Q.** And the MIC [39]?
**A.** The MIC was 4 µM (≈ 6.45 µg/mL).

**Q.** What about the MIC [40] of the same compound?
**A.** Its MIC is 8 µM (≈ 12.9 µg/mL).

**Q.** What about the MIC [5] of the same compound?
**A.** Its MIC is 8 µM (≈ 12.9 µg/mL).

**Q.** What about the MIC [41] of the same compound?
**A.** Its MIC is 4.96 µM (≈ 8 µg/mL).

**Q.** And the MIC [42]?
**A.** Its MIC is 4.96 µM (≈ 8 µg/mL).

**Q.** What about the MIC [43] of the same compound?
**A.** Its MIC is 8 µM (≈ 12.9 µg/mL).

**Q.** And the MIC [44]?
**A.** The MIC was 16 µM (≈ 25.8 µg/mL).

**Q.** What about the MIC [45] of the same compound?
**A.** The MIC was at least 38.4 µM.

**Q.** And the MIC [46]?
**A.** The MIC was 16 µM (≈ 25.8 µg/mL).

**Q.** And the MIC [47]?
**A.** Its MIC is 16 µM (≈ 25.8 µg/mL).

**Q.** What about the MIC [48] of the same compound?
**A.** Its MIC is 2 µM (≈ 3.23 µg/mL).

**Q.** And the MIC [49]?
**A.** Its MIC is 4 µM (≈ 6.45 µg/mL).

**Q.** What about the MIC [50] of the same compound?
**A.** The MIC was 8 µM (≈ 12.9 µg/mL).

**Q.** And the MIC [51]?
**A.** The MIC was 4 µM (≈ 6.45 µg/mL).

**Q.** What about the MIC [52] of the same compound?
**A.** The MIC was 2.48 µM (≈ 4 µg/mL).
